For assay [1], the target named is Beta-2 adrenergic receptor (Homo sapiens) (UniProt P07550). The following applies: Compound concentration 10.0 uM.
Assay [2] concerns the target Serine/threonine-protein kinase PAK 3 (Homo sapiens) (UniProt O75914). Put plainly: PAK3(h) Eurofins kinase panel. The following applies: Compound concentration 1.0 uM.
Assay [3] concerns the target LIM domain kinase 1 (Homo sapiens) (UniProt P53667). Put plainly: LIMK1(h) Eurofins kinase panel. Conditions: Compound concentration 1.0 uM.
In assay [4] the target is Vascular endothelial growth factor receptor 3 (Homo sapiens) (UniProt P35916). Description: Flt4(h) Eurofins kinase panel. The following applies: Compound concentration 1.0 uM.
Sequence of Vascular endothelial growth factor receptor 3 (Homo sapiens) (P35916 whole entry): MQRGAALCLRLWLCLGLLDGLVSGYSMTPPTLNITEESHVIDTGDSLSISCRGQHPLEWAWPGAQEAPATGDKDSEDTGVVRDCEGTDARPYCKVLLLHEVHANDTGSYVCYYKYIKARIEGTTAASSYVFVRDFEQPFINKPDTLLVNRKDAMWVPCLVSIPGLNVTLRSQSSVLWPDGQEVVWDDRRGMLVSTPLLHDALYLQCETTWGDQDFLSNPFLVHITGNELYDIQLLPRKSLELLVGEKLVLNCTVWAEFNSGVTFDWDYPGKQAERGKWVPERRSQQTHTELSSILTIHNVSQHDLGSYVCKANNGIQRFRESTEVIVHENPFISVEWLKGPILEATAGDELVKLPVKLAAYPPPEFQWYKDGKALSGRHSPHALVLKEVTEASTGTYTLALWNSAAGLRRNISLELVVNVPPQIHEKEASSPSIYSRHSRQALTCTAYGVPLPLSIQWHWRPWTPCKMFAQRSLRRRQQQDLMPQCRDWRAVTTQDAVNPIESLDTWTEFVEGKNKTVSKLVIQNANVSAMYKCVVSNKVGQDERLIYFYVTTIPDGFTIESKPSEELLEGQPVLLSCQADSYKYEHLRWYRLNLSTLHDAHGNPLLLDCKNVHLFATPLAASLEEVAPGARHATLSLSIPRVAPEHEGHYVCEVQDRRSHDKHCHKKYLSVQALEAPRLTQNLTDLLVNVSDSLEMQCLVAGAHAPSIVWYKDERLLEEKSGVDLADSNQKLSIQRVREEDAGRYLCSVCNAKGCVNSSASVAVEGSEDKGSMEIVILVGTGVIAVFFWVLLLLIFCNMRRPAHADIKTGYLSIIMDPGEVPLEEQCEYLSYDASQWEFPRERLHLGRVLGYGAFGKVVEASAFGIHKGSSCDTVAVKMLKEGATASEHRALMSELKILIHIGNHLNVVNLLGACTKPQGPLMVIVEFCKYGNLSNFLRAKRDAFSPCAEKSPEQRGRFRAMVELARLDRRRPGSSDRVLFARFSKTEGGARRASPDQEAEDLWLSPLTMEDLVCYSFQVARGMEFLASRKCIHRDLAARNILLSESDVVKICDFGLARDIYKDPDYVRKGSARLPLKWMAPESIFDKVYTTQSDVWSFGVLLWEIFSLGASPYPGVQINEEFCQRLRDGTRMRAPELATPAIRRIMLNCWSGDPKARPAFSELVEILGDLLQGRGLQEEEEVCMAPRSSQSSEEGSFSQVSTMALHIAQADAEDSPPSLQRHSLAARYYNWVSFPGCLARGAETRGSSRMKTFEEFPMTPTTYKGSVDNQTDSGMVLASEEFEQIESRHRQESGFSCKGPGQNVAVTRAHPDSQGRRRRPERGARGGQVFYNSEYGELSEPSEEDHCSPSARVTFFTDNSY
In assay [5] the target is T1, Serine/threonine-protein kinase TAO3 (Homo sapiens) (UniProt Q9H2K8).
T1 sequence (whole entry): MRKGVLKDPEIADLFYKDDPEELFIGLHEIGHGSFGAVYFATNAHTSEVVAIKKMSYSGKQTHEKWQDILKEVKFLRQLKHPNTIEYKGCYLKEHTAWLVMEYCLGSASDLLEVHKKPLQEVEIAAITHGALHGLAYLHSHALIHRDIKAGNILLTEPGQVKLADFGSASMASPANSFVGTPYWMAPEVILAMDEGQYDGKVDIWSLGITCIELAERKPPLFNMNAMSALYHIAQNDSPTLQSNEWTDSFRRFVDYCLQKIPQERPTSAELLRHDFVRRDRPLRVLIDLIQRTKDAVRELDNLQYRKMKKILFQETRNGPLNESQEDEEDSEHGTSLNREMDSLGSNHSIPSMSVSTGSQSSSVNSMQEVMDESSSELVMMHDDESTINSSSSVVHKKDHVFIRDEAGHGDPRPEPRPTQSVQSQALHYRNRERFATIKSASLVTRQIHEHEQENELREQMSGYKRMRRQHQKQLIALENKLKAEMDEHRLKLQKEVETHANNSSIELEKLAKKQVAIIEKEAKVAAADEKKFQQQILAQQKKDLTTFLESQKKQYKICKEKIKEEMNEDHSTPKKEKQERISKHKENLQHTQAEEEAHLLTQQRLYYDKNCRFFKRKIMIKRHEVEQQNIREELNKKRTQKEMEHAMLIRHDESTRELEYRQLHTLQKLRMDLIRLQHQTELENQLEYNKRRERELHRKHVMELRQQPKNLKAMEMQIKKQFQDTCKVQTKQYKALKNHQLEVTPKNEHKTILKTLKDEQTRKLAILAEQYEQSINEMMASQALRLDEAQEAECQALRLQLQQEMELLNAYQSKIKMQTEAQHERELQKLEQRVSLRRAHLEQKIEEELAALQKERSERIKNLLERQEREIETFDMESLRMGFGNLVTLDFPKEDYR
Description: TAO3(h) Eurofins kinase panel. The following applies: Compound concentration 1.0 uM.

A further assay concerns MDA-MB-231. Description: MDA-MB- 231 cell line Proliferation assay. The format is functional, Homo sapiens. Conditions: time 3 day.
In assay [6] the target is T2, Serine/threonine-protein kinase Nek2 (Homo sapiens) (UniProt P51955).
T2 sequence (whole entry): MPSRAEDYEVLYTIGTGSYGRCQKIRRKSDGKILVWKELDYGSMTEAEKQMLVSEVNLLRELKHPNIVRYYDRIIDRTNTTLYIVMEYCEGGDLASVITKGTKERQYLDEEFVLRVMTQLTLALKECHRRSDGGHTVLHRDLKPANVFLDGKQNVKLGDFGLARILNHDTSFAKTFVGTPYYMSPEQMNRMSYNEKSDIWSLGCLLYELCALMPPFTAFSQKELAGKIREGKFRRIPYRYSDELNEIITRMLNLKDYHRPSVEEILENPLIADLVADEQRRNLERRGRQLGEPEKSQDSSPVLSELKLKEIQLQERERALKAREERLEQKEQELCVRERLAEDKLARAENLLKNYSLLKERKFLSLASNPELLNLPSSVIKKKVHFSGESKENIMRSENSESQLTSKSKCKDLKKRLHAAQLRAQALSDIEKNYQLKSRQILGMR
Put plainly: NEK2(h) Eurofins kinase panel. The following applies: Compound concentration 1.0 uM.

Assay [7] has as its target MAP/microtubule affinity-regulating kinase 3 (Homo sapiens) (UniProt P27448). Put plainly: MARK3(h) Eurofins kinase panel. The following applies: Compound concentration 1.0 uM.
Assay [8] concerns the target T3, Serine/threonine-protein kinase Sgk2 (Homo sapiens) (UniProt Q9HBY8).
T3 sequence (whole entry): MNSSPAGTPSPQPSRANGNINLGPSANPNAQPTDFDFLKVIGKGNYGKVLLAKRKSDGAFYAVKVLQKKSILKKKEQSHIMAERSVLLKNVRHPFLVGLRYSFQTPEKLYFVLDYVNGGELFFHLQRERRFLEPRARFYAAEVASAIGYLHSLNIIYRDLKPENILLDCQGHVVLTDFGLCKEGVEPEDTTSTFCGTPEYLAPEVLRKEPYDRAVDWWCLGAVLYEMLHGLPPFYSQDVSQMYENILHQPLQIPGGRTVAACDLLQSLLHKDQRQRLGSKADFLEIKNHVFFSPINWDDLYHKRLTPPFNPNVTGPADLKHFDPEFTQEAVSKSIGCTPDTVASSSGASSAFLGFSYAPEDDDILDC
Put plainly: SGK2(h) Eurofins kinase panel. Conditions: Compound concentration 1.0 uM.

Assay [9] concerns the target Ribosomal protein S6 kinase alpha-2 (Homo sapiens, UniProt Q15349). The following applies: Compound concentration 1.0 uM.
The target in assay [10] is [Pyruvate dehydrogenase (acetyl-transferring)] kinase isozyme 4, mitochondrial (Homo sapiens) (UniProt Q16654). Put plainly: PDHK4(h) Eurofins kinase panel. Conditions: Compound concentration 1.0 uM.
Sequence of [Pyruvate dehydrogenase (acetyl-transferring)] kinase isozyme 4, mitochondrial (Homo sapiens) (Q16654 whole entry, looked up): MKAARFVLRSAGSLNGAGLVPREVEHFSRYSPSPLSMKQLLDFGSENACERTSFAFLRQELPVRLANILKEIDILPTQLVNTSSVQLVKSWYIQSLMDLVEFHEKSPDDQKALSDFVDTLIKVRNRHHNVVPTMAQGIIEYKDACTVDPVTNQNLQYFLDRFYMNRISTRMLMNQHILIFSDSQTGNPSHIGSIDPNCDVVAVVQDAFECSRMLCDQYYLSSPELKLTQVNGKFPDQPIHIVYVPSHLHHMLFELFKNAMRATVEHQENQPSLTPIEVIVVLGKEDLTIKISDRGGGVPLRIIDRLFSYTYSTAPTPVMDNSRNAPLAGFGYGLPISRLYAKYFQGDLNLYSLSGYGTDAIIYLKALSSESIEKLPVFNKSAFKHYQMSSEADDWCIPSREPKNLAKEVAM
Assay [11] addresses Serine/threonine-protein kinase PAK 1 (Homo sapiens) (UniProt Q13153). Description: PAK1(h) Eurofins kinase panel. The following applies: Compound concentration 1.0 uM.
Assay [12] concerns the target 5'-AMP-activated protein kinase catalytic subunit alpha-1 (Homo sapiens, UniProt Q13131).
The target of assay [13] is T4, Serine/threonine-protein kinase Sgk3 (Homo sapiens) (UniProt Q96BR1).
T4 sequence (whole entry): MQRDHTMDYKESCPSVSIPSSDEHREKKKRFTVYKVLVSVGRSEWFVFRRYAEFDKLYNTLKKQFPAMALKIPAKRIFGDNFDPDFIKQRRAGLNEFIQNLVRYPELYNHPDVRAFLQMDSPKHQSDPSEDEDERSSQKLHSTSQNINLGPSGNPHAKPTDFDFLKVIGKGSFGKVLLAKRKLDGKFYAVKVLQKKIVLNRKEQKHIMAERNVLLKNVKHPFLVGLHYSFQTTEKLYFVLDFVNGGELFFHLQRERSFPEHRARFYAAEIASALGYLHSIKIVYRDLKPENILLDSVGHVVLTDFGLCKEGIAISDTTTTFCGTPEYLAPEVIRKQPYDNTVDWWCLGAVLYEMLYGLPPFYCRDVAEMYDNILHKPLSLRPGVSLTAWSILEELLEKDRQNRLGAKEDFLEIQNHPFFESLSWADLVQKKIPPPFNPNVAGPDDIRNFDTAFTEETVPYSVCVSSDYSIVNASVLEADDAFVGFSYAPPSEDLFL
Description: SGK3(h) Eurofins kinase panel. Conditions: Compound concentration 1.0 uM.

The target of assay [14] is Fibroblast growth factor receptor 2 (Homo sapiens) (UniProt P21802). Description: FGFR2(h) Eurofins kinase panel. The following applies: Compound concentration 1.0 uM.

SMILES strings stand for the structures.

What is called inhibition is the relative decrease from the control value, in per cent. For orientation: IC50 means the concentration at which inhibition is half-maximal.

Sequence of 5'-AMP-activated protein kinase catalytic subunit alpha-1 (Q13131 whole entry): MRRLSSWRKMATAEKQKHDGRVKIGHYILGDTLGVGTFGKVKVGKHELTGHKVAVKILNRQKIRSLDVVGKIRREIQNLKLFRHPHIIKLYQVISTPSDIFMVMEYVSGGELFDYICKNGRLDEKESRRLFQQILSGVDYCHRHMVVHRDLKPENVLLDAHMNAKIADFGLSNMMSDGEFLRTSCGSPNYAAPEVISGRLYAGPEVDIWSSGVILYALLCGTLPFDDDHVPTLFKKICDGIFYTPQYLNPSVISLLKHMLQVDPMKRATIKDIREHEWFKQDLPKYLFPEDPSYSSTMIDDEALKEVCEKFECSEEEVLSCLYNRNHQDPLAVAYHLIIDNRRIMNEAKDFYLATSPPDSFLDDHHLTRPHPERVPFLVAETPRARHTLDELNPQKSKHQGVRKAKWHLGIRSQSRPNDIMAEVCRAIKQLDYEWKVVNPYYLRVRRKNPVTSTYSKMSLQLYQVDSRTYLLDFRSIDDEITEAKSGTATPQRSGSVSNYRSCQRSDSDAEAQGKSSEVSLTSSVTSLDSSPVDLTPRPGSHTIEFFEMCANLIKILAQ
Sequence of Serine/threonine-protein kinase PAK 1 (Homo sapiens) (Q13153 whole entry): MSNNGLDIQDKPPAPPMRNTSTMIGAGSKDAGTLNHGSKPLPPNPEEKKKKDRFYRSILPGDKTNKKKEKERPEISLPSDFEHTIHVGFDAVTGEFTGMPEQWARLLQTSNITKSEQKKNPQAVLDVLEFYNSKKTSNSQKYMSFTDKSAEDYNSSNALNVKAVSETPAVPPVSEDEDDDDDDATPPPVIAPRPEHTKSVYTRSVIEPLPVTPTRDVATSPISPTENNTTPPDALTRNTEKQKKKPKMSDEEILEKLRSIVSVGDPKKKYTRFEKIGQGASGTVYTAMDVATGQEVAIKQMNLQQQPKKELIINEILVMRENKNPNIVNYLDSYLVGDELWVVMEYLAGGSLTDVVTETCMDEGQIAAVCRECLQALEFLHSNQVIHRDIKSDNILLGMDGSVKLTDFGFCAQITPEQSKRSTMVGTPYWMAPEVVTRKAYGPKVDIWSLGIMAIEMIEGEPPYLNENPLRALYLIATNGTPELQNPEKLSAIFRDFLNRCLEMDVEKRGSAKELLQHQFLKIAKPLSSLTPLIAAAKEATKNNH
Sequence of Beta-2 adrenergic receptor (Homo sapiens) (P07550 whole entry, looked up): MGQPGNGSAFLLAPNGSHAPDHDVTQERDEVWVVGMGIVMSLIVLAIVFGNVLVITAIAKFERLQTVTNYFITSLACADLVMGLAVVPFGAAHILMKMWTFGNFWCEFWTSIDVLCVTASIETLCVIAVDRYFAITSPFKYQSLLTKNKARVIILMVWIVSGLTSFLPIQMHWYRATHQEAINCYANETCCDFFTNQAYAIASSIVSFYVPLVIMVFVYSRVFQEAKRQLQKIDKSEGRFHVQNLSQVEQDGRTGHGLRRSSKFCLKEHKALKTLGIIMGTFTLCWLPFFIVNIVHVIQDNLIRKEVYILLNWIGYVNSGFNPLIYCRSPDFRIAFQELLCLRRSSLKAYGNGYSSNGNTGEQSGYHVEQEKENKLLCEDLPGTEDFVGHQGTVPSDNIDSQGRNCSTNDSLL
Sequence of Ribosomal protein S6 kinase alpha-2 (Q15349 whole entry): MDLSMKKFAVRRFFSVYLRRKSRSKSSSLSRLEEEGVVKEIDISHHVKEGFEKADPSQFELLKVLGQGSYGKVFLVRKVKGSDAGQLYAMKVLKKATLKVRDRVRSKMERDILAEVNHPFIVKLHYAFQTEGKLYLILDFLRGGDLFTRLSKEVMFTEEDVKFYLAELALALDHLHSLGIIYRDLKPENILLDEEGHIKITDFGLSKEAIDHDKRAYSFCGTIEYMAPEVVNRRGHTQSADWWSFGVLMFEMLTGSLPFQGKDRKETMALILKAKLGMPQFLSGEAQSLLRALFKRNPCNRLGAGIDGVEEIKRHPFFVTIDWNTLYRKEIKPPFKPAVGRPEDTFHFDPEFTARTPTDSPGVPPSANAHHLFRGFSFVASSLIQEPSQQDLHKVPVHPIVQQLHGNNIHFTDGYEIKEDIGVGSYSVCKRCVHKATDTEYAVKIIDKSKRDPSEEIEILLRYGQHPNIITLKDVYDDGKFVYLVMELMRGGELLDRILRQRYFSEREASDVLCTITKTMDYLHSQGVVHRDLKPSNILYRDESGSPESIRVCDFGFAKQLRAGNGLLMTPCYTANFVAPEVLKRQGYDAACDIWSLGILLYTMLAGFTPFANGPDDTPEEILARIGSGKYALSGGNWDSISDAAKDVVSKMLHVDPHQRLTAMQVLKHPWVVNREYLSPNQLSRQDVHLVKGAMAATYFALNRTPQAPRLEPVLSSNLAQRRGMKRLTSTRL
Sequence of Serine/threonine-protein kinase PAK 3 (Homo sapiens) (O75914 whole entry, looked up, the tested form may be a part): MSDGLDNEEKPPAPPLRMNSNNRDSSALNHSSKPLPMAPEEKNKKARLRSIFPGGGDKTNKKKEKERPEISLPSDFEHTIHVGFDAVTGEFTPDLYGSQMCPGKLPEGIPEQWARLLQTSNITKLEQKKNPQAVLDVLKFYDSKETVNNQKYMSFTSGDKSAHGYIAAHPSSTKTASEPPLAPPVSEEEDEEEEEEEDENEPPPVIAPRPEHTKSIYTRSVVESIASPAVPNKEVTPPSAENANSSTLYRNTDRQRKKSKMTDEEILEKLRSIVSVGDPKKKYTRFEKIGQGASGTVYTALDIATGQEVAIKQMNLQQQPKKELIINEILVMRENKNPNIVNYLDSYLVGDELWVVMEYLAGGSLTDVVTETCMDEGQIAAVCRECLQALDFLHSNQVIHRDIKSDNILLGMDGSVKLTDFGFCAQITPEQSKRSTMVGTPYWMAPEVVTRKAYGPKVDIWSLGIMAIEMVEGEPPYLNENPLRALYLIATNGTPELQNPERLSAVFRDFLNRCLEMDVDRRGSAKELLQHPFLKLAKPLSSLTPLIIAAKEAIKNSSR

Regarding `CC1=C(C#N)C(c2ccc3c(c2)c(NC(=O)c2ccccc2C)nn3C)C(C#N)=C(C)N1` [BAY-974], the inhibition in [1] is -7.25%.

For the compound `CCc1ccccc1C(=O)Nc1n[nH]c2c(C)c(F)c(C3C(C#N)=C(C)N(C)C(C)=C3C#N)cc12` [BAY-3827], the % residual kinase activity in assay [2] was 100%; in assay [3], 95%; in [4], 73%; in [5] it was 102%; in assay [6] it was 91%; in [7], 70%. Further, the % residual kinase activity in [8] is 70%; in [9] it was 5%; in [10], 101%; in assay [11] it was 94%; in assay [13], 95%; in assay [14], 58%. For the same compound, the “Cell Proliferation IC50” value in the assay with MDA-MB-231 was greater than 30 µM. The IC50 in assay [12] was 10 nM.

Values taken from ChEMBL document CHEMBL4507319 (2021).
